PubChem BioAssay AID248 (DTP/NCI, 2004)
Where “and” joins values, the source holds several entries; their conditions need not be identical. Identical values can stand only once. Toxic doses and inconclusive results are not listed. Rule as the data show it: active = T/C of 150% or more; inactive = T/C below 125%.

Tested on: L1210 leukemia ip in BDF1 mice, survival T/C
Assay: NCI In Vivo Anticancer Drug Screen. Data for tumor model L1210 Leukemia (intraperitoneal) in B6D2F1 (BDF1) mice
Conditions: endpoint: mean survival time, higher = longer survival
Summary of the method: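 Survival endpoint. Drug-treated group vs vehicle group, expressed as T divided by C. Tumor passaged by transplantation.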

[1] = dose: 50.0 mg/kg/injection, schedule: Q01DX009 (ip), vehicle: saline
[2] = dose: 100.0 mg/kg/injection, schedule: Q04DX003 (ip), vehicle: saline
[3] = dose: 100.0 mg/kg/injection, schedule: Q01DX009 (ip), vehicle: Klucel (hydroxypropylcellulose) (HPC)
[4] = dose: 200.0 mg/kg/injection, schedule: Q01DX009 (ip), vehicle: Klucel (hydroxypropylcellulose) (HPC)
[5] = dose: 100.0 mg/kg/injection, schedule: Q01DX009 (ip), vehicle: saline
[6] = dose: 200.0 mg/kg/injection, schedule: Q01DX009 (ip), vehicle: saline
[7] = dose: 100.0 mg/kg/injection, schedule: Q01DX009 (ip), vehicle: saline with Tween-80
[8] = dose: 200.0 mg/kg/injection, schedule: Q01DX009 (ip), vehicle: saline with Tween-80
[9] = dose: 400.0 mg/kg/injection, schedule: Q01DX009 (ip), vehicle: saline with Tween-80
[10] = dose: 100.0 mg/kg/injection, schedule: Q04DX003 (ip), vehicle: saline with Tween-80
[11] = dose: 200.0 mg/kg/injection, schedule: Q04DX003 (ip), vehicle: saline with Tween-80
[12] = dose: 400.0 mg/kg/injection, schedule: Q04DX003 (ip), vehicle: saline with Tween-80
[13] = dose: 100.0 mg/kg/injection, schedule: Q01DX001 (ip), vehicle: carboxymethylcellulose (CMC)
[14] = dose: 400.0 mg/kg/injection, schedule: Q01DX009 (ip), vehicle: Klucel (hydroxypropylcellulose) (HPC)
[15] = dose: 100.0 mg/kg/injection, schedule: Q04DX002 (ip), vehicle: Klucel (hydroxypropylcellulose) (HPC)

Measured: T/C

O=C(OC(=O)C1CC1)C1CC1
inactive: dose: 12.5 mg/kg/injection, schedule: Q01DX009 (ip), vehicle: saline 96 % of control | dose: 25.0 mg/kg/injection, schedule: Q01DX009 (ip), vehicle: saline 92 % of control | dose: 25.0 mg/kg/injection, schedule: Q04DX003 (ip), vehicle: saline 90 % of control | [1] 96 % of control and 111 % of control | dose: 50.0 mg/kg/injection, schedule: Q04DX003 (ip), vehicle: saline 88 % of control | [2] 96 % of control and 101 % of control

O=C(c1cccc(F)c1)C(F)(F)F
inactive: [3] 96 % of control | [4] 104 % of control | dose: 300.0 mg/kg/injection, schedule: Q01DX009 (ip), vehicle: Klucel (hydroxypropylcellulose) (HPC) 93 % of control

CC(=O)NCC[CH2][Sn]([c]1ccccc1)([c]1ccccc1)[c]1ccccc1
inactive: [1] 100 % of control | [5] 100 % of control | [6] 110 % of control

Cc1ccc(S(=O)(=O)N2C(=O)CCC2C(=O)O)cc1 (configuration not stated)
inactive: dose: 100.0 mg/kg/injection, schedule: Q01DX001 (ip), vehicle: saline with Tween-80 100 % of control | [7] 98 % of control | dose: 200.0 mg/kg/injection, schedule: Q01DX001 (ip), vehicle: saline with Tween-80 96 % of control | [8] 96 % of control | dose: 400.0 mg/kg/injection, schedule: Q01DX001 (ip), vehicle: saline with Tween-80 97 % of control | [9] 102 % of control

O=C(O)c1cc(C(=O)Nc2ccc(C3=NCCN3)cc2)c(C(=O)O)cc1C(=O)Nc1ccc(C2=NCCN2)cc1
inactive: dose: 15.0 mg/kg/injection, schedule: Q01DX Z (ip), vehicle: carboxymethylcellulose (CMC) 95 % of control | dose: 30.0 mg/kg/injection, schedule: Q01DX Z (ip), vehicle: carboxymethylcellulose (CMC) 98 % of control | dose: 60.0 mg/kg/injection, schedule: Q01DX Z (ip), vehicle: carboxymethylcellulose (CMC) 101 % of control | dose: 120.0 mg/kg/injection, schedule: Q01DX Z (ip), vehicle: carboxymethylcellulose (CMC) 95 % of control

COc1cc(Nc2nc(N)ncc2N)cc(OC)c1OC
inactive: [10] 95 % of control | [11] 98 % of control | [12] 92 % of control

On1nnc2ccc(Cl)cc21
inactive: [10] 95 % of control | [11] 95 % of control | [12] 102 % of control

COC1(c2ccccc2)C(c2ccccc2)=CC(c2ccccc2)=[N+]1[O-] (configuration not stated)
inactive: dose: 75.0 mg/kg/injection, schedule: Q04DX003 (ip), vehicle: saline 92 % of control | dose: 150.0 mg/kg/injection, schedule: Q04DX003 (ip), vehicle: saline 89 % of control | dose: 300.0 mg/kg/injection, schedule: Q04DX003 (ip), vehicle: saline 91 % of control

Cc1ccc2c(ccc(/C=C\c3cc(C)c4cccnc4c3O)[n+]2C)c1
inactive: [13] 114 % of control

C=C1CCC2C(O)CCN2C1=O (configuration not stated)
inactive: dose: 25.0 mg/kg/injection, schedule: Q01DX001 (ip), vehicle: saline 103 % of control | dose: 50.0 mg/kg/injection, schedule: Q01DX001 (ip), vehicle: saline 106 % of control | dose: 100.0 mg/kg/injection, schedule: Q01DX001 (ip), vehicle: saline 109 % of control | dose: 200.0 mg/kg/injection, schedule: Q01DX001 (ip), vehicle: saline 104 % of control

CN(Cc1ccccc1Cl)C(=O)Nc1ccccc1
inactive: [3] 101 % of control | [4] 106 % of control | [14] 101 % of control

CC(=O)NC/C(C)=N/Nc1ccc([N+](=O)[O-])cc1[N+](=O)[O-]
inactive: dose: 25.0 mg/kg/injection, schedule: Q01DX009 (ip), vehicle: saline with Tween-80 91 % of control | dose: 50.0 mg/kg/injection, schedule: Q01DX009 (ip), vehicle: saline with Tween-80 93 % of control | [7] 102 % of control | [10] 88 % of control

COc1ccc(CN(CCO)C(C)=O)cc1
inactive: [5] 100 % of control | [2] 112 % of control | [6] 105 % of control | dose: 200.0 mg/kg/injection, schedule: Q04DX003 (ip), vehicle: saline 107 % of control | dose: 400.0 mg/kg/injection, schedule: Q01DX009 (ip), vehicle: saline 103 % of control | dose: 400.0 mg/kg/injection, schedule: Q04DX003 (ip), vehicle: saline 119 % of control

COc1cc(OC(C)=O)c(OC(C)=O)cc1OC(C)=O
inactive: [7] 98 % of control | [8] 96 % of control | [9] 100 % of control

CCC(O)CC(=O)O (configuration not stated) (tested in a mixture with another compound)
inactive: dose: 25.0 mg/kg/injection, schedule: Q04DX002 (ip), vehicle: Klucel (hydroxypropylcellulose) (HPC) 104 % of control | dose: 50.0 mg/kg/injection, schedule: Q04DX002 (ip), vehicle: Klucel (hydroxypropylcellulose) (HPC) 101 % of control | [15] 101 % of control

CC(C)OC(=O)Nc1ccccc1
inactive: [3] 93 % of control | [15] 102 % of control | [4] 93 % of control | dose: 200.0 mg/kg/injection, schedule: Q04DX002 (ip), vehicle: Klucel (hydroxypropylcellulose) (HPC) 112 % of control | [14] 110 % of control | dose: 400.0 mg/kg/injection, schedule: Q04DX002 (ip), vehicle: Klucel (hydroxypropylcellulose) (HPC) 115 % of control

OC1(c2ccccc2)CCN(C/C=C/c2ccccc2Cl)CC1
inactive: [10] 92 % of control | [11] 93 % of control | [12] 90 % of control

CN(C(=O)c1ccccc1Cl)C(c1ccco1)P(=O)(c1ccccc1)c1ccccc1 (configuration not stated)
inactive: [7] 93 % of control | dose: 100.0 mg/kg/injection, schedule: Q04DX002 (ip), vehicle: saline with Tween-80 93 % of control | [8] 90 % of control | dose: 200.0 mg/kg/injection, schedule: Q04DX002 (ip), vehicle: saline with Tween-80 90 % of control | [9] 87 % of control | dose: 400.0 mg/kg/injection, schedule: Q04DX002 (ip), vehicle: saline with Tween-80 90 % of control

C/C=C/c1nc2c(c(=O)n(C)c(=O)n2C)n1C
inactive: dose: 50.0 mg/kg/injection, schedule: Q01DX001 (ip), vehicle: carboxymethylcellulose (CMC) 106 % of control | [13] 95 % of control | dose: 200.0 mg/kg/injection, schedule: Q01DX001 (ip), vehicle: carboxymethylcellulose (CMC) 103 % of control | dose: 400.0 mg/kg/injection, schedule: Q01DX001 (ip), vehicle: carboxymethylcellulose (CMC) 97 % of control

CC(=O)C1(c2ccccc2)C(C)(C)C(C)(C)C(=O)C(C)(C)C1(C)C
inactive: dose: 100.0 mg/kg/injection, schedule: Q04DX002 (ip), vehicle: gum acacia 99 % of control | dose: 200.0 mg/kg/injection, schedule: Q04DX002 (ip), vehicle: gum acacia 96 % of control | dose: 400.0 mg/kg/injection, schedule: Q04DX002 (ip), vehicle: gum acacia 92 % of control
